Assay results from ChEMBL document CHEMBL4828717, “Synthetic cajaninstilbene acid derivatives eradicate methicillin-resistant Staphylococcus aureus persisters and biofilms” (Eur J Med Chem, 2021).
The source made the active and inactive calls. The calls are words filed in the database; no cut-off is given here.

How the values were obtained:
Staphylococcus aureus [1] = assay: Antibacterial activity against methicillin resistant Staphylococcus aureus ATCC48706 assessed as reduction in microbial growth after 16 to 18 hrs by microbroth dilution method; assay type: functional; settings: time 16-18 hrs
Staphylococcus aureus [2] = assay: Antibacterial activity against methicillin resistant Staphylococcus aureus ATCC 62202 assessed as reduction in microbial growth after 16 to 18 hrs by microbroth dilution method; assay type: functional; settings: time 16-18 hrs
Staphylococcus aureus [3] = assay: Antibacterial activity against methicillin resistant Staphylococcus aureus ATCC 43300 persisters assessed as reduction in colony formation at 8 ug/ml incubated for 2 hrs by colony counting method; assay type: functional, organism-based; settings: dose 8.0 µg/ml
Cell membrane [4] = assay: Induction of cell membrane damage in methicillin resistant Staphylococcus aureus ATCC 43300 assessed as increase in nucleic acid leakage by measuring increase in absorbance at 260 nm at 0.5 to 2 times MIC measured every 30 mins for 6 hrs by spectrophotometry; assay type: subcellular
[5] = Toxicity in BALB/c mouse infected with methicillin-resistant Staphylococcus aureus ATCC 43300 assessed as damage in heart at 50 to 200 mg/kg, sc administered every 24 hrs for 4 days by H&E staining based light microscopic analysis; assay type: organism-based; settings: in vivo, dose 50-200 mg/kg
Staphylococcus aureus [6] = assay: Inhibition of biofilm formation in methicillin-resistant Staphylococcus aureus ATCC 43300 at 1 times MIC incubated for 24 hrs by crystal violet staining based microplate reader assay; assay type: functional
Staphylococcus aureus [7] = assay: Synergistic antimicrobial activity against Staphylococcus aureus ATCC 43300 assessed as FICI at 1 times MIC after 24 hrs in presence of 128 ug/ml kanamycin by checkerboard assay; assay type: functional
Escherichia coli = assay: Antibacterial activity against Escherichia coli ATCC25922 assessed as reduction in microbial growth after 16 to 18 hrs by microbroth dilution method; assay type: functional; settings: ATCC 25922, time 16-18 hrs
[8] = Toxicity in BALB/c mouse infected with methicillin-resistant Staphylococcus aureus ATCC 43300 assessed as damage in kidney at 50 to 200 mg/kg, sc administered every 24 hrs for 4 days by H&E staining based light microscopic analysis; assay type: organism-based; settings: in vivo, dose 50-200 mg/kg
Staphylococcus aureus [9] = assay: Synergistic antimicrobial activity against Staphylococcus aureus ATCC 43300 assessed as FICI at 0.5 times MIC after 24 hrs in presence of 64 ug/ml piperacillin by checkerboard assay; assay type: functional
Cell membrane [10] = assay: Induction of cell membrane damage in Staphylococcus aureus ATCC 43300 at 2 times MIC after 90 mins by confocal laser scanning microscopy analysis
Staphylococcus aureus [11] = assay: Synergistic antimicrobial activity against Staphylococcus aureus ATCC 43300 assessed as FICI at 0.25 times MIC after 24 hrs in presence of 128 ug/ml piperacillin by checkerboard assay; assay type: functional
L02 = assay: Cytotoxicity against human L02 cells assessed as cell viability at 10 ug/ml measured after 24 hrs by MTT assay; assay type: cell-based; settings: l02, 24 h, dose 10 µg/ml
Cell membrane [12] = assay: Induction of cell membrane damage in Staphylococcus aureus ATCC 43300 at 1 times MIC after 90 mins by confocal laser scanning microscopy analysis
Staphylococcus aureus [13] = assay: Antibacterial activity against methicillin resistant Staphylococcus aureus ATCC513045 assessed as reduction in microbial growth after 16 to 18 hrs by microbroth dilution method; assay type: functional; settings: time 16-18 hrs
Staphylococcus aureus [14] = assay: Antibacterial activity against methicillin resistant Staphylococcus aureus ATCC515992 assessed as reduction in microbial growth after 16 to 18 hrs by microbroth dilution method; assay type: functional; settings: time 16-18 hrs
Staphylococcus aureus [15] = assay: Synergistic antimicrobial activity against Staphylococcus aureus ATCC 43300 assessed as FICI at 0.5 times MIC after 24 hrs in presence of 16 ug/ml gentamicin by checkerboard assay; assay type: functional
Staphylococcus aureus [16] = assay: Antibacterial activity against methicillin resistant Staphylococcus aureus ATCC 43300 persisters assessed as reduction in colony formation at 8 ug/ml incubated for 8 hrs by colony counting method; assay type: functional, organism-based; settings: dose 8.0 µg/ml
[17] = Cytotoxicity against mouse RAW264.7 cells assessed as cell viability at 10 ug/ml measured after 24 hrs by MTT assay; assay type: cell-based; settings: RAW264.7 cells, at 10 µg/mL, read-out: Activity
Staphylococcus aureus [18] = assay: Antibacterial activity against methicillin resistant Staphylococcus aureus ATCC49025 assessed as reduction in microbial growth after 16 to 18 hrs by microbroth dilution method; assay type: functional; settings: time 16-18 hrs
Staphylococcus aureus [19] = assay: Antibacterial activity against methicillin resistant Staphylococcus aureus ATCC48073 assessed as reduction in microbial growth after 16 to 18 hrs by microbroth dilution method; assay type: functional; settings: time 16-18 hrs
[20] = Toxicity in BALB/c mouse infected with methicillin-resistant Staphylococcus aureus ATCC 43300 assessed as damage in spleen at 50 to 200 mg/kg, sc administered every 24 hrs for 4 days by H&E staining based light microscopic analysis; assay type: organism-based; settings: in vivo, dose 50-200 mg/kg
Staphylococcus aureus [21] = assay: Antibacterial activity against Staphylococcus aureus ATCC 25923 assessed as reduction in microbial growth after 16 to 18 hrs by microbroth dilution method; assay type: functional; settings: time 16-18 hrs
Staphylococcus aureus [22] = assay: Synergistic antimicrobial activity against Staphylococcus aureus ATCC 43300 assessed as FICI at 1 times MIC after 24 hrs in presence of 8 ug/ml gentamicin by checkerboard assay; assay type: functional
Staphylococcus aureus [23] = assay: Synergistic antimicrobial activity against Staphylococcus aureus ATCC 43300 assessed as FICI at 2 times MIC after 24 hrs in presence of 64 ug/ml kanamycin by checkerboard assay; assay type: functional
Staphylococcus aureus [24] = assay: Synergistic antimicrobial activity against Staphylococcus aureus ATCC 43300 assessed as FICI at 2 times MIC after 24 hrs in presence of 4 ug/ml gentamicin by checkerboard assay; assay type: functional
[25] = Toxicity in BALB/c mouse infected with methicillin-resistant Staphylococcus aureus ATCC 43300 assessed as damage in liver at 50 to 200 mg/kg, sc administered every 24 hrs for 4 days by H&E staining based light microscopic analysis; assay type: organism-based; settings: in vivo, dose 50-200 mg/kg
Staphylococcus aureus [26] = assay: Induction of morphological changes in Staphylococcus aureus ATCC 43300 assessed as membrane damage at 8 times MIC after 90 mins by TEM analysis; assay type: functional, organism-based
Enterococcus faecalis = assay: Antibacterial activity against Enterococcus faecalis ATCC29212 assessed as reduction in microbial growth after 16 to 18 hrs by microbroth dilution method; assay type: functional; settings: ATCC 29212, time 16-18 hrs
Cell membrane [27] = assay: Induction of cell membrane damage in Staphylococcus aureus ATCC 43300 at 0.5 times MIC after 90 mins by confocal laser scanning microscopy analysis; assay type: subcellular
Staphylococcus aureus [28] = assay: Antibacterial activity against methicillin resistant Staphylococcus aureus ATCC48966 assessed as reduction in microbial growth after 16 to 18 hrs by microbroth dilution method; assay type: functional; settings: time 16-18 hrs
Cell membrane [29] = assay: Induction of cell membrane depolarization in methicillin resistant Staphylococcus aureus ATCC 43300 measured after 60 mins by DiOC5 dye based flow analyzer
[30] = Toxicity in BALB/c mouse infected with methicillin-resistant Staphylococcus aureus ATCC 43300 assessed as damage in lung at 50 to 200 mg/kg, sc administered every 24 hrs for 4 days by H&E staining based light microscopic analysis; assay type: organism-based; settings: in vivo, dose 50-200 mg/kg
Cell membrane [31] = assay: Induction of cell membrane damage in methicillin resistant Staphylococcus aureus ATCC 43300 assessed as increase in ATP leakage […] at 4 times MIC measured every 30 mins for 6 hrs by Bactiter-glo assay

CC(C)=CCc1c(OCCF)cc(/C=C/c2ccc(F)cc2)c(C(=O)O)c1O
MIC (Staphylococcus aureus [1]): 4 µg/mL | MIC (Staphylococcus aureus [2]): 4 µg/mL | Activity (Staphylococcus aureus [3]): Active | Activity (Cell membrane [4]): Active | Activity [5]: Non-Toxic | inhibition (INH) (Staphylococcus aureus [6]): 50% | fractional inhibitory concentration index (FICI) (Staphylococcus aureus [7]): 0.75 | MIC (Escherichia coli): > 32 µg/mL | Activity [8]: Non-Toxic | fractional inhibitory concentration index (FICI) (Staphylococcus aureus [9]): 0.25 | Activity (Cell membrane [10]): Active | fractional inhibitory concentration index (FICI) (Staphylococcus aureus [11]): 0.3125 | Activity (L02): Toxic | Activity (Cell membrane [12]): Active | MIC (Staphylococcus aureus [13]): 4 µg/mL | MIC (Staphylococcus aureus [14]): 4 µg/mL | fractional inhibitory concentration index (FICI) (Staphylococcus aureus [15]): 1.125 | Activity (Staphylococcus aureus [16]): Active | viability at 24 h, 10 ug/ml [17]: > 60% | MIC (Staphylococcus aureus [18]): 4 µg/mL | MIC (Staphylococcus aureus [19]): 4 µg/mL | Activity [20]: Non-Toxic | MIC (Staphylococcus aureus [21]): 2 µg/mL | fractional inhibitory concentration index (FICI) (Staphylococcus aureus [22]): 0.75 | fractional inhibitory concentration index (FICI) (Staphylococcus aureus [23]): 1 | fractional inhibitory concentration index (FICI) (Staphylococcus aureus [24]): 0.75 | Activity [25]: Non-Toxic | Activity (Staphylococcus aureus [26]): Active | MIC (Enterococcus faecalis): > 32 µg/mL | Activity (Cell membrane [27]): Active | MIC (Staphylococcus aureus [28]): 4 µg/mL | Activity (Cell membrane [29]): Dose-Dependent Effect | Activity [30]: Non-Toxic | Activity (Cell membrane [31]): Active
